Legend:
Mer = biological target: T1, Mer (Homo sapiens, UniProt Q12866); conditions: exogenous ligand; cited from earlier work
T1 sequence (Q12866 21-999): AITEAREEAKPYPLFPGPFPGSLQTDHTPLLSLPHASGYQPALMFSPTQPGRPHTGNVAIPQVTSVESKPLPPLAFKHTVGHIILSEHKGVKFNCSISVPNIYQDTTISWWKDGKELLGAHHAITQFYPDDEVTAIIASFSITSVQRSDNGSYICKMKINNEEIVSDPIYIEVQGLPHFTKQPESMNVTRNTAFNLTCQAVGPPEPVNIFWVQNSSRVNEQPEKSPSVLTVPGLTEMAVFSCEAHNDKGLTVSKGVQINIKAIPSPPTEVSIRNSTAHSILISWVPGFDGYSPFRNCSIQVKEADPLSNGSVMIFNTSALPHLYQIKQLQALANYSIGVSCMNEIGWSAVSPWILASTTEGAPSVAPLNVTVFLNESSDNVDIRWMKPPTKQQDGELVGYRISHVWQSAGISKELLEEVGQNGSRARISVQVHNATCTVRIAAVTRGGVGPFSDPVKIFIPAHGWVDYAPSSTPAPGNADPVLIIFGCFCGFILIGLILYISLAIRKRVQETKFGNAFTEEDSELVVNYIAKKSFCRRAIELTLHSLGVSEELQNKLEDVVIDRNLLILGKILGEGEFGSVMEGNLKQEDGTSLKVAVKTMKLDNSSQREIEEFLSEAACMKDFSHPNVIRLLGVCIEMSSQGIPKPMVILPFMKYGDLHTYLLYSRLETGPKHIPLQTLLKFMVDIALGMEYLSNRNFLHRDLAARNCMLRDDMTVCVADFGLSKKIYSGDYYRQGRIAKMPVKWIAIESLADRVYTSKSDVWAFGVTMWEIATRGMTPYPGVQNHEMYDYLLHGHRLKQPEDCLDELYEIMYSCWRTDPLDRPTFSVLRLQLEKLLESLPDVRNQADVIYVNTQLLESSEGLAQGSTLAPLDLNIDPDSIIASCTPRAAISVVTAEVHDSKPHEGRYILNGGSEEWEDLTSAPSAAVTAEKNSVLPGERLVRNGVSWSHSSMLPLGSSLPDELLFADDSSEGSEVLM

RAW 264.7 macrophage = conditions: cited from earlier work
RAW264.7 cells = experiment: High-throughput screen of cytokine production by LPS-stimulated RAW264.7 macrophages; format: cell-based
From the text: Since macrophages are one immune cell thought to be important in immune responses, including tolerance through their production of a key immune mediator called Interleukin-10 (IL-10), we developed an in vitro approach to screening the effects of EDC-cells versus PLGA nanoparticles for their effects on IL-10 production.
We examined the proinflammatory response (IL-6) or anti-inflammatory response (IL-10), as outlined in FIG. 2.
Using the strategy in FIG. 2, we calculated the greatest fold change for cytokine production over a therapeutically relevant dose curve of 0.1, 1, 10, and 100 μM.
Using activated RAW macrophages we developed a high throughput screening method to identify tolerogenic signals.
In support of our overarching concept that ECDI-fixed NPs are lacking signals for induction of tolerogenic signals, we have examined the ability to modulate cytokine responses in a macrophage cell line (RAW264.7).

allograft = conditions: in vivo; cited from earlier work
CD209 = biological target: T2, CD209 (Homo sapiens, UniProt Q9NNX6); conditions: cited from earlier work
T2 sequence (Q9NNX6 1-404): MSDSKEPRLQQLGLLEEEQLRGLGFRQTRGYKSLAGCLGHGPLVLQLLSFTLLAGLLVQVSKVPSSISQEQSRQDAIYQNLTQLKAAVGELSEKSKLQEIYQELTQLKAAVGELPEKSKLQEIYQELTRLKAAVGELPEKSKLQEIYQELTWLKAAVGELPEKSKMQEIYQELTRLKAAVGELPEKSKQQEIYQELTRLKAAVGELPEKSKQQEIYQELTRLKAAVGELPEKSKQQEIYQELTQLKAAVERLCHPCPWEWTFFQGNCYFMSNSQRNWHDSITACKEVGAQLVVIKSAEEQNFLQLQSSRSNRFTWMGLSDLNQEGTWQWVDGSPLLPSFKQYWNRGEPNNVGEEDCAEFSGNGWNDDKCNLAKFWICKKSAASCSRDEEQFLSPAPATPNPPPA

[1] = macrophages stimulated with LPS

In the case of “GAS6: Growth Arrest-Specific 6, cognate ligand for TAM RTKs”, the “tyrosine autophosphorylation / signalling of Mer” value (Mer) is given as “stimulate tyrosine autophosphorylation of both Mer and Ax1”.

In the case of `Nc1ncnc2c1ncn2[C@@H]1O[C@H](CO)[C@@H](O)[C@H]1O` [adenosine], the “inflammatory response (decrease of pro-inflammatory cytokines, increase in IL-10/TGF13)” value (RAW 264.7 macrophage) is listed as “inhibit this inflammatory response”.

For `CC(=O)N[C@H]1C(O)O[C@H](CO)[C@@H](O[C@@H]2O[C@H](CO)[C@H](O)[C@H](O)[C@H]2O)[C@@H]1O[C@@H]1O[C@@H](C)[C@@H](O)[C@@H](O)[C@@H]1O` (some centres unmarked) [Lewis^x antigen], the IL-6 production (RAW264.7 cells; [1]) was “suppression of IL-6 production” and the IL-10 production (RAW264.7 cells; [1]) was “enhancement of IL-10”.

For `C[C@H]1CC[C@@H]2N(C1)C[C@H]1[C@@H]3C[C@H]4[C@@H](C[C@H](O)[C@H]5C[C@@H](O)CC[C@@]54C)[C@@H]3CC[C@@H]1[C@]2(C)O` [peimine], the “inflammatory response (decrease of pro-inflammatory cytokines, increase in IL-10/TGF13)” value (RAW 264.7 macrophage) is listed as “inhibit this inflammatory response”.

In the case of `CCCCCC(=O)CC(=O)/C=C/c1ccc(O)c(OC)c1` [6-dehydrogingerdione], the “inflammatory response (decrease of pro-inflammatory cytokines, increase in IL-10/TGF13)” value (RAW 264.7 macrophage) is given as “inhibit this inflammatory response”.

In the case of `CC(=O)N[C@H]1[C@H](O[C@H]2[C@@H](O)[C@@H](CO)O[C@@H](O[C@H]3[C@H](O)[C@@H](O)C(O)O[C@@H]3CO)[C@@H]2O)O[C@H](CO)[C@@H](O[C@@H]2O[C@H](CO)[C@H](O)[C@H](O)[C@H]2O)[C@@H]1O[C@@H]1O[C@@H](C)[C@@H](O)[C@@H](O)[C@@H]1O` (some centres unmarked) [LNFPIII, Lacto-N-fuconentaose III], the allograft survival (allograft) is listed as “prolong allograft survival” and the “binding and signalling through CD209” value (CD209) is listed as “binds and signals through CD209”.

In the case of `C[C@H](O)[C@@H](O)[C@@H](O)[C@H](O)C=O` [Fucose, L-Fucose], the “tolerogenic signal (increase IL-10 secretion and/or decrease IL-6 secretion versus baseline)” value (RAW264.7 cells; macrophages activated with LPS, with or without ECDI-SP, dose curve 0.1, 1, 10, 100 μM) is reported as “exhibiting a tolerogenic signal”.

For Protein S: cognate ligand for TAM RTKs, the “tyrosine autophosphorylation / signalling of Mer” value (Mer) is given as “only capable of signaling through Mer”.

For `C[C@H]1O[C@@H](O[C@H]2CC[C@@]3(C)[C@@H](CC[C@]4(C)[C@@H]3C=C[C@]35OC[C@@]6(CCC(C)(C)C[C@H]63)[C@@H](O)C[C@]54C)[C@]2(C)CO)[C@H](O)[C@@H](O[C@@H]2O[C@H](CO)[C@@H](O)[C@H](O)[C@H]2O)[C@H]1O` [saikosaponin A], the “inflammatory response (decrease of pro-inflammatory cytokines, increase in IL-10/TGF13)” value (RAW 264.7 macrophage) is given as “inhibit this inflammatory response”.
